PubChem BioAssay (NCI)
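All cell lines were grown in 96-well plates and treated with compound for 48 hours. GI50 marks 50% less growth. TGI: total growth inhibition.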

Assays:
Experiment in all cases: NCI anticancer screen, dose series, 48 h
SK-MEL-5 melanoma = test system: SK-MEL-5 melanoma
OVCAR-5 ovarian = test system: OVCAR-5 ovarian
HOP-92 NSCLC = test system: HOP-92 NSCLC
RPMI-8226 leukemia = test system: RPMI-8226 leukemia
SK-OV-3 ovarian = test system: SK-OV-3 ovarian
K-562 leukemia = test system: K-562 leukemia
HL-60(TB) leukemia = test system: HL-60(TB) leukemia
NCI-H226 lung = test system: NCI-H226 lung
NCI/ADR-RES ovarian = test system: NCI/ADR-RES ovarian
MCF7 breast = test system: MCF7 breast

Row | Compound | TGI (SK-MEL-5 melanoma) [µM] | TGI (OVCAR-5 ovarian) [µM] | TGI (HOP-92 NSCLC) [µM] | TGI (RPMI-8226 leukemia) [µM] | TGI (SK-OV-3 ovarian) [µM] | TGI (K-562 leukemia) [µM] | TGI (HL-60(TB) leukemia) [µM] | TGI (NCI-H226 lung) [µM] | GI50 (SK-MEL-5 melanoma) [µM] | GI50 (OVCAR-5 ovarian) [µM] | GI50 (HOP-92 NSCLC) [µM] | GI50 (NCI/ADR-RES ovarian) [µM] | TGI (NCI/ADR-RES ovarian) [µM] | GI50 (RPMI-8226 leukemia) [µM] | GI50 (SK-OV-3 ovarian) [µM] | GI50 (K-562 leukemia) [µM] | GI50 (HL-60(TB) leukemia) [µM] | GI50 (NCI-H226 lung) [µM] | GI50 (MCF7 breast) [µM] | TGI (MCF7 breast) [µM]
1 | ClC[Si]12OCCN(CCO1)CCO2 | > 100 | > 100 | > 100 | > 100 | > 100 | > 100 | > 100 | > 100 |  |  |  |  |  |  |  |  |  |  |  | 
2 | Oc1cc2ccccc2cc1-c1n[nH]c(=S)n1-c1ccc(Cl)cc1 | 38.2 | 95.6 | > 100 | 43.5 | > 100 | > 100 | > 100 | 85 | 14.4 | 27.6 | 46 | 13.8 | 64.1 | 12.1 | 28.6 | > 100 | 19 | 23.7 |  | 
3 | O=C1C(Cl)=C(Nc2cccc(O)c2)C(=O)N1c1cccc(Cl)c1Cl | 21.7 | 57.7 | 5.91 | 16.2 | > 100 | 29.6 |  |  | 7.01 | 22.4 | 0.262 | 18.9 | 46 | 1.56 | 32.9 | 13.5 |  |  | 13.7 | 42.7
4 | COc1ccc(CC2C3=C(CCCC3)CCN2C)cc1 (configuration not stated) | > 100 | > 100 |  | > 100 | > 100 | > 100 | > 100 | > 100 |  |  |  |  | > 100 |  |  |  |  |  |  | > 100
5 | COC(=O)C1C2CCCN2OC1(C)CO (configuration not stated) | > 100 | > 100 |  | > 100 | > 100 | > 100 | > 100 | > 100 |  |  |  |  | > 100 |  |  |  |  |  |  | > 100
6 | CN(C)/C=N/c1nc2ncn(CCOC(=O)c3ccccc3)c2c(=O)[nH]1 | > 100 | > 100 | > 100 | > 100 | > 100 | > 100 | > 100 | > 100 |  |  |  |  |  |  |  |  |  |  |  | 
7 | Cc1nc2cc(N)c(Cl)cc2[nH]1 | > 100 | > 100 |  | > 100 | > 100 | > 100 | > 100 | > 100 |  |  |  |  | > 100 |  |  |  |  |  |  | > 100
8 | N#CC1=C(c2ccccc2)C(O)(c2ccccc2)NC1=O (configuration not stated) | > 100 | 90.1 | 75.2 | > 100 | 88.9 | > 100 | > 100 | > 100 |  |  |  |  |  |  |  |  |  |  |  | 
9 | CC(Oc1ccc2cc(C(=O)c3ccccc3)c(=O)oc2c1)C(=O)O (configuration not stated) | > 100 |  | > 100 |  | > 100 | > 100 | > 100 | > 100 |  |  |  |  |  |  |  |  |  |  |  | 
10 | COc1ccc(C(=O)O)c(Cc2ccc3ccccc3c2)c1 | > 100 | > 100 | > 100 | > 100 | > 100 | > 100 | > 100 | > 100 |  |  |  |  |  |  |  |  |  |  |  | 
11 | O=C1C(N2C(=O)c3ccccc3C2=O)CN1C(COCc1ccccc1)c1ccc(OCc2ccccc2)cc1 (configuration not stated) | > 100 | > 100 | > 100 | > 100 | > 100 | > 100 | > 100 | > 100 |  |  |  |  |  |  |  |  |  |  |  | 
12 | Cc1nn(-c2ccc(Br)cc2)c(C)c1CC(=O)c1cc(O)ccc1O | 20.3 | > 50 |  | > 50 |  | 29.5 | > 50 | 19.3 | 6.84 | 16.2 |  | 11.2 | 45.6 | 8.21 |  | 3.02 | 11.9 | 7.69 | 6.27 | 18.8
13 | c1ccc(C2N3CCCCC3[C@@H]3c4[nH]c5ccccc5c4CCN23)cc1 (some centres not stated) | > 100 | > 100 | > 100 | > 100 | > 100 | > 100 | 48.8 |  |  |  |  |  |  |  |  |  |  |  |  | 
14 | O=[N+]([O-])c1ccc(-c2cn(-c3ccc(Cl)cc3)cn2)cc1 | > 100 | > 100 |  | > 100 | 24.4 | > 100 | > 100 | > 100 |  |  |  |  | > 100 |  |  |  |  |  |  | > 100
15 | COc1ccc(/C(C)=N/NC(N)=S)c(OC)c1 | > 100 | > 100 | > 100 | > 100 | > 100 | > 100 | > 100 | > 100 |  |  |  |  |  |  |  |  |  |  |  | 
16 | C=C1C(=O)OC2/C=C(\C)C3OC3/C=C(/C(=O)OC)C(OC(C)=O)C(OC(=O)C(C)(O)C(C)OC(C)=O)C12 (configuration not stated) | 7.09 | 10.7 | 4.1 | 7.9 | 33 | 17.1 |  | 15.7 |  |  |  |  |  |  |  |  |  |  |  | 2.67
17 | COc1cc(-c2cc(CCC(=O)Nc3ccccc3[N+](=O)[O-])n(-c3ccc([N+](=O)[O-])cc3[N+](=O)[O-])n2)ccc1O | > 100 | > 100 | > 100 | > 100 | > 100 | > 100 | > 100 | > 100 | > 100 | > 100 | > 100 |  |  | > 100 | > 100 | > 10 | > 100 | > 100 |  | 
18 | Cc1cccc(NC(=O)CC#N)c1Cl |  |  | > 100 | > 100 | > 100 | > 100 | > 100 | > 100 |  |  |  |  |  |  |  |  |  |  |  | 
19 | CC1(C)OC(=O)C(=C2CC(c3ccccc3)c3ccccc32)C(=O)O1 (configuration not stated) | > 100 | > 100 | > 100 | > 100 | > 100 | > 100 | > 100 | > 100 |  |  |  |  |  |  |  |  |  |  |  | 
20 | CCN(CC(COc1ccc2c(c1)[n+]([O-])nc(N)[n+]2[O-])OC(C)=O)C(C)=O (configuration not stated) | > 100 | > 100 |  | > 100 | 74.9 | > 100 | > 100 | > 100 |  |  |  |  | > 100 |  |  |  |  |  |  | > 100
21 | BrC12c3ccccc3Sc3ccccc3C1(Br)c1ccccc12 (configuration not stated) | 30.8 | 86.2 | 60.5 | 36.4 | > 100 | > 100 | 29.1 | 38.7 |  |  |  |  |  |  |  |  |  |  |  | 
